Reference: US8063221B2, “Aminoquinolones as GSK-3 inhibitors” (Kyorin Pharmaceutical Co., Ltd., priority 2006, dated 2011)
Converted amounts (≈) assume the structure as drawn.

Columns and labels:
[1] = target: T1, recombinant full-length human GSK3β (Homo sapiens, UniProt P49841); assay: Luciferase-coupled cell-free GSK3β kinase assay; type: biochemical; conditions: Table 2
T1 construct: recombinant full-length human GSK3β (Upstate); purchased Upstate
Protocol: For compounds in Tables 1 and 2, IC50 (μM) for GSK3β enzyme in cell free assay is provided as follows:
Luciferase-Coupled Protein Kinase Assays
All coupled-luciferase assays are performed by using a brief incubation with firefly luciferase (Promega) after completion of the kinase assay. KinaseGlo Plus is used for reading kinase reactions with ATP>10 μM, KinaseGlo for ATP <10 μM. The assay volume in a 384-well plate for the kinase reaction is 30 microliters.
10-25 ng of recombinant full-length human GSK3β (Upstate) is incubated in the presence or absence of compound at varying concentrations for 1 hour at 30 degrees Celsius in 20 mM MOPS, pH 7.0, 10 mM magnesium acetate, 0.2 mM EDTA, 2 mM EGTA, 30 mM magnesium chloride, 62.5 μM phospho-glycogen synthase peptide-2, 5 μM ATP, 10 mM β-glycerol phosphate, 1 mM sodium orthovanadate and 1 mM dithiothreitol. Proceed to KinaseGlo luciferase reaction (see below).
Following the completion of the kinase reaction an equal volume of KinaseGlo or KinaseGlo Plus luciferase reagent (Promega) is added and the luminescence read using a luminescence plate reader within 5-10 minutes. Compound activity is expressed as % inhibition relative to maximal inhibition observed at the maximal dose and IC50 values then calculated using curve fitting software (GraphPad Prizm).

E. coli, ATCC8739 = assay: Antibacterial activity (MIC), E. coli; type: cell-based; conditions: Escherichia coli, ATCC8739, Table 2; E. coli ATCC8739; read-out: Antimicrobial MIC [μM] E. Coli
Description: (§1) As used herein, a minimum inhibitory concentration (MIC) for bacterial growth assay is the lowest level of a compound needed to cause an inhibition to bacterial growth in culture medium. In certain embodiments, the antibacterial activity of compounds herein, measured as MIC.
(§2) In certain embodiments, GSK3 inhibitors provided herein are substantially free of antibacterial activity or having very low antibacterial activity. The antibacterial activity can be measured by methods known in the art by estimating a minimum inhibitory concentration (MIC) for test compounds. A MIC is the lowest level of a compound needed to cause an inhibition to bacterial growth in a culture medium. […] (Clinical and Laboratory Standards Institute. Methods for Dilution Antimicrobial Susceptibility Tests for Bacteria That Grow Aerobically; Approved Standard-Sixth Edition: CLSI document […]. CLSI, Wayne, Pa. (2003))
(§3) Antibacterial activity for E. coli, ATCC8739 andS. aureus Smith expressed as MIC (μM) is provided as follows: […]

S. aureus Smith = assay: Antibacterial activity (MIC), S. aureus; type: cell-based; conditions: Staphylococcus aureus, Table 2; S. aureus Smith; read-out: Antimicrobial MIC [μM] S. aureus
Description: as §1, §2, §3

T1 sequence (P49841 whole entry): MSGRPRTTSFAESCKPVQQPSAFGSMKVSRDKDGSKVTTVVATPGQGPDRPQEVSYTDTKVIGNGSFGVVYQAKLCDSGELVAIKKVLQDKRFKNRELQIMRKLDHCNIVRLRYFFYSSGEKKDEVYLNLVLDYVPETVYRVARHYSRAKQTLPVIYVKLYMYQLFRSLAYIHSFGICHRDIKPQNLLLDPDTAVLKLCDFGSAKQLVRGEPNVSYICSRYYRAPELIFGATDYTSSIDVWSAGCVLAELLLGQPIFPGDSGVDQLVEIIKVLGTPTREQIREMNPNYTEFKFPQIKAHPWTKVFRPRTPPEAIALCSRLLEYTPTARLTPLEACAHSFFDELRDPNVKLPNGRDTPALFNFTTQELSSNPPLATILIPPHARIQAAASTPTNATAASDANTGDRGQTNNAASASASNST

| IC50 [1] | MIC (E. coli, ATCC8739) | MIC (S. aureus Smith) | SMILES |
| --- | --- | --- | --- |
| < 100 nM | 10 to 50 µM (≈ 4.17 to 20.9 µg/mL) | 10 to 50 µM (≈ 4.17 to 20.9 µg/mL) | C[C@H]1COc2c(NCCCC3CCCCC3)c(F)c(N)c3c(=O)c(C(=O)O)cn1c23 [Example 103] |
| 100 to 500 nM | 10 to 50 µM (≈ 4.9 to 24.5 µg/mL) | 10 to 50 µM (≈ 4.9 to 24.5 µg/mL) | Nc1c(F)c(NCCNc2ccccn2)c2c3c1c(=O)c(C(=O)O)cn3[C@@H](Cc1ccccc1)CO2 [Example 120] |
| < 100 nM | 10 to 50 µM (≈ 4.44 to 22.2 µg/mL) | 0.5 to 10 µM (≈ 0.222 to 4.44 µg/mL) | COc1c(NCCNc2ccccn2)c(Cl)c(N)c2c(=O)c(C(=O)O)cn(C3CC3)c12 [Example 121] |
| 500 to 1000 nM | 10 to 50 µM (≈ 4.07 to 20.4 µg/mL) | 0.5 to 10 µM (≈ 0.204 to 4.07 µg/mL) | CCOC(=O)CCNc1c(F)c(N)c2c(=O)c(C(=O)O)cn(C3CC3)c2c1OC [Example 122] |
| < 100 nM | > 50 µM | > 50 µM | COc1c(NCCNc2ccccn2)c(F)c(N)c2c(=O)c(C(=O)O)c(C)n(C3CC3)c12 [Example 123] |
| 100 to 500 nM | 10 to 50 µM (≈ 4.75 to 23.8 µg/mL) | 10 to 50 µM (≈ 4.75 to 23.8 µg/mL) | Nc1c(F)c(NCCNc2ccccn2)c2c3c1c(=O)c(C(=O)O)cn3[C@@H](c1ccccc1)CO2 [Example 124] |
| 100 to 500 nM | > 50 µM | > 50 µM | CCOC(=O)CCNc1c(F)c(N)c2c(=O)ccn(C3CC3)c2c1OC [Example 125] |
| > 1000 nM | 0.5 to 10 µM (≈ 0.214 to 4.27 µg/mL) | 0.5 to 10 µM (≈ 0.214 to 4.27 µg/mL) | Nc1c(F)c(NC(=O)CCc2ccccc2)c(F)c2c1c(=O)c(C(=O)O)cn2C1CC1 [Example 126] |
| 100 to 500 nM | 10 to 50 µM (≈ 4.7 to 23.5 µg/mL) | 0.5 to 10 µM (≈ 0.235 to 4.7 µg/mL) | Cc1c(C(=O)O)c(=O)c2c(N)c(F)c(NCCNc3ccccn3)c(OC(C)C)c2n1C1CC1 [Example 127] |
|  | 0.5 to 10 µM (≈ 0.223 to 4.46 µg/mL) | 0.5 to 10 µM (≈ 0.223 to 4.46 µg/mL) | CSc1c(F)c(NCCNc2ccccn2)c(F)c2c1c(=O)c(C(=O)O)cn2C1CC1 [Example 128] |
| 100 to 500 nM | 10 to 50 µM (≈ 4.01 to 20.1 µg/mL) | 10 to 50 µM (≈ 4.01 to 20.1 µg/mL) | COc1c(NCCNc2ccccn2)c(F)c(N)c2c(=O)c(C(=O)O)cn(C)c12 [Example 129] |
| > 1000 nM | 0.5 to 10 µM (≈ 0.239 to 4.77 µg/mL) | 0.5 to 10 µM (≈ 0.239 to 4.77 µg/mL) | COc1c(NCCNc2ccccn2)c(F)c(N)c2c(=O)c(C(=O)O)cn(Cc3ccccc3)c12 [Example 130] |
| < 100 nM | 0.5 to 10 µM (≈ 0.216 to 4.32 µg/mL) | 0.5 to 10 µM (≈ 0.216 to 4.32 µg/mL) | O=C(O)c1cn(C2CC2)c2c(F)c(NCCNc3ccccn3)c(F)c(S)c2c1=O [Example 131] |
| > 1000 nM | 0.5 to 10 µM (≈ 0.214 to 4.28 µg/mL) | < 0.5 µM | COc1c(OCCNc2ccccn2)c(F)c(N)c2c(=O)c(C(=O)O)cn(C3CC3)c12 [Example 132] |
| < 100 nM | 0.5 to 10 µM (≈ 0.199 to 3.97 µg/mL) | < 0.5 µM | Nc1c(F)c(NCCNc2ccccn2)cc2c1c(=O)c(C(=O)O)cn2C1CC1 [Example 133] |
| < 100 nM | < 0.5 µM | < 0.5 µM | Nc1c(F)c(NCCNc2ccccn2)c2c3c1c(=O)c(C(=O)O)cn3[C@@H](CF)CO2 [Example 134] |
| < 100 nM | 10 to 50 µM (≈ 4.41 to 22.1 µg/mL) | 10 to 50 µM (≈ 4.41 to 22.1 µg/mL) | Nc1c(F)c(NCCNc2ccccn2)cc2c1c(=O)c(C(=O)O)cn2C1CCOCC1 [Example 135] |
| > 1000 nM | > 50 µM | > 50 µM | Nc1c(F)c(NCCNc2ccccn2)c(F)c2c1c(=O)cc(C(=O)O)n2C1CC1 [Example 136] |
| < 100 nM | > 50 µM | > 50 µM | COc1c(NCCNc2ccc(C(=O)O)cn2)c(F)c(N)c2c(=O)ccn(C3CC3)c12 [Example 137] |
| < 100 nM | > 50 µM | > 50 µM | COc1c(NCCNc2ccc(C(=O)O)cn2)c(F)c(N)c2c(=O)c(C(=O)O)cn(C3CC3)c12 [Example 138] |
| 500 to 1000 nM | > 50 µM | > 50 µM | NC1=C2C(=O)C(C(=O)O)=CN3CCCCOC(C(NCCNc4ccccn4)=C1F)C23 (centres unmarked) [Example 140] |
| < 100 nM | 0.5 to 10 µM (≈ 0.252 to 5.04 µg/mL) | 0.5 to 10 µM (≈ 0.252 to 5.04 µg/mL) | COc1c(NCCNc2ccccn2)c(F)c(NC(=O)C(F)(F)F)c2c(=O)c(C#N)cn(C3CC3)c12 [Example 141] |
| < 100 nM | > 50 µM | > 50 µM | COc1c(NCCNc2ccccn2)c(F)c(N)c2c(=O)c(C#N)cn(C3CC3)c12 [Example 142] |
| 100 to 500 nM | 10 to 50 µM (≈ 3.81 to 19.1 µg/mL) | 10 to 50 µM (≈ 3.81 to 19.1 µg/mL) | COc1c(NCCCc2ccccc2)c(F)c(N)c2c(=O)ccn(C3CC3)c12 [compound 1] |
